Measured values published in patent US9604936B2, “Besylate salt of a BTK inhibitor” (Celgene Avilomics Research, Inc., priority 2010, dated 2017).
Where two headings read alike, the source gives them in different places.

Legend:
B-cell proliferation [1] = settings: in vivo; cited from earlier work
B-cell proliferation [2] = settings: in vitro; cited from earlier work
BTK = BTK (Homo sapiens, UniProt Q06187); settings: enzymatic and cellular assays; cited from earlier work
[3] = Solubility of Compound 2 by manual dilution combined with visual observation; assay type: physicochemical; settings: thermodynamic from solid
Experimental: Solubility of Compound 2, at room temperature, was measured in seventeen solvents and two solvent mixtures by manual dilution combined with visual observation.

Sequence of BTK (Q06187 whole entry, species assumed): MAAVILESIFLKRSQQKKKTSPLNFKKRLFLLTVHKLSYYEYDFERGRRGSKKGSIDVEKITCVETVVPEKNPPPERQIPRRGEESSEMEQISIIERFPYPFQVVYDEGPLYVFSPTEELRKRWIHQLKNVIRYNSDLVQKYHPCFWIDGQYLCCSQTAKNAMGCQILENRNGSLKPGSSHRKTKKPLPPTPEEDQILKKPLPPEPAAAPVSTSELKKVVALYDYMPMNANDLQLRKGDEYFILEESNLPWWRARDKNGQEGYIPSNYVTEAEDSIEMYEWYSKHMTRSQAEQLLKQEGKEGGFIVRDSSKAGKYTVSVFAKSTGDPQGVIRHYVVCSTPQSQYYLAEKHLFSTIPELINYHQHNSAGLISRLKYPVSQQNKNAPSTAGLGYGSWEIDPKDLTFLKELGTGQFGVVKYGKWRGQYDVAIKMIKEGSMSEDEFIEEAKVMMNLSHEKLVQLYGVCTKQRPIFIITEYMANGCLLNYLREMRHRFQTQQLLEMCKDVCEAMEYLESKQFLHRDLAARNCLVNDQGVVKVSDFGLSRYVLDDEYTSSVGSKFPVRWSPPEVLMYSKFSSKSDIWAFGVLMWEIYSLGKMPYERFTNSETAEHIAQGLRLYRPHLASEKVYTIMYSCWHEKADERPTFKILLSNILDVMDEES

With C=CC(=O)Nc1cccc(Nc2nc(Nc3ccc(OCCOC)cc3)ncc2F)c1 [Compound 1, N-(3-(5-fluoro-2-(4-(2-methoxyethoxy)phenylamino)pyrimidin-4-ylamino)phenyl)acrylamide] as the molecule, how does the “inhibition of B-cell proliferation” value (B-cell proliferation [1]) read?
Its value is “inhibit B-cell proliferation”.

And the “inhibition of B-cell proliferation” value (B-cell proliferation [2])?
The value was “inhibit B-cell proliferation”.

What about the “inhibition of BTK” value (BTK) of the same molecule?
Its value is “covalent, irreversible inhibition of BTK”.

What does the source list for C=CC(=O)Nc1cccc(Nc2nc(Nc3ccc(OCCOC)cc3)ncc2F)c1.O=S(=O)(O)c1ccccc1 [Compound 2]?
solubility ([3]; aqueous with cosolvent or surfactant or cyclodextrin, 1:1 DMF:H2O, room temperature): 71000 to 106000 µg/mL; solubility ([3]; aqueous with cosolvent or surfactant or cyclodextrin, 3:7 DMF:H2O, room temperature): 16000 to 18000 µg/mL; solubility ([3]; organic solvent or mixture, 1,4-dioxane, room temperature): < 1000 µg/mL; solubility ([3]; organic solvent or mixture, Acetone, room temperature): ~2500 µg/mL; solubility ([3]; organic solvent or mixture, Anisole, room temperature): < 1000 µg/mL; solubility ([3]; organic solvent or mixture, Benzyl alcohol, room temperature): 97000 to 194000 µg/mL; solubility ([3]; organic solvent or mixture, CH2Cl2, room temperature): < 1000 µg/mL; solubility ([3]; organic solvent or mixture, CH3CN, room temperature): ~2000 µg/mL; solubility ([3]; organic solvent or mixture, DMF, room temperature): > 184000 µg/mL; solubility ([3]; organic solvent or mixture, Ethanol, room temperature): ~2000 µg/mL; solubility ([3]; organic solvent or mixture, Ethyl Acetate, room temperature): < 1000 µg/mL; solubility ([3]; organic solvent or mixture, Isopropanol, room temperature): < 1000 µg/mL; solubility ([3]; organic solvent or mixture, Methanol, room temperature): 26000 to 29000 µg/mL; solubility ([3]; organic solvent or mixture, Pyridine, room temperature): > 234000 µg/mL; solubility ([3]; organic solvent or mixture, TBME, room temperature): < 1000 µg/mL; solubility ([3]; organic solvent or mixture, THF, room temperature): ~2000 µg/mL; solubility ([3]; organic solvent or mixture, Toluene, room temperature): < 1000 µg/mL; solubility ([3]; Water, room temperature): < 1000 µg/mL
